Results reported in patent publication US8084602B2, “Porphyrin derivatives and their use in photodynamic therapy” (Destiny Pharma Limited, priority 2002, dated 2011).

Assays:
E. coli ATCC 25922 = assay: Cell survival (colony forming unit) with or without illumination; format: cell-based, Escherichia coli; conditions: for Log reduction: E. coli
Experimental: (§1) The toxic effects of exemplary compounds of the invention against two bacterial strains, the Gram negative bacterium Escherichia coli (strain ATCC 25922) and the Gram positive bacterium Staphylococcus aureus (methicillin-resistant strain ATTC BAA-44), were evaluated by measuring the extent of growth inhibition (bacteriostatic effect) and growth […] (cytocidal effect) in the dark and upon light exposure. Initial compound screening was undertaken using white light [390-740 nm] (150 mW/cm^2) for various timepoints of a concentration of 3 μM (see Table 1). Further experiments were undertaken on those compounds identified from this initial screen using a light source emitting light at a wavelength between 417-420 nm at 15.2 mW/cm^2, 13.68 J/cm^2 (Waldmann Eclairage SA, France) (see Table 20.
(§2) For the further investigation of the exemplary compounds (Table 2), the following protocol was adopted: • (i) Bacteria (S. aureus BAA-44 and E. coli 25922) were grown in brain heart infusion (BHI) broth until they reached the stationary phase of growth. • (ii) The cells were harvested by centrifugation (3000 g for 15 min) with a table centrifuge, washed with 10 mM PBS at pH 7.4 containing 2.7 mM KCl and 0.14 M NaCl and suspended in PBS at an optical density of 0.7 at 650 nm corresponding to 10^8-10^9 cells/ml. • (iii) The bacteria, at the desired cell density (˜10^8 cells/ml) were incubated for 5 min in the dark with various concentrations of the exemplary compounds. • (iv) At the end of the incubation period the cells were washed three times with PBS, suspended in PBS, transferred into a 96-well microtitre plate (200 μl/well) and illuminated for 15 min with the Waldmann light source (15.2 mW/cm^2; 13.7 J/cm^2). The cells were illuminated from the bottom of the plate laying it on the glass cover of the lamp. • (v) After illumination, cell survival was determined by plating serially diluted aliquots of treated and untreated (i.e. no exemplary compound or light present) cells onto brain heart agar (BHA) and counting the number of colonies after 18-24 h incubation at 37° C.
(§3) the above colony forming unit (CFU) protocol was also used to investigate the photodynamic activity of very low concentrations of the compounds of the invention.

[1] = tested on: S. aureus ATCC BAA-44 (a methicillin resistant S. aureus); assay: as above; format: cell-based, Staphylococcus aureus; conditions: for dark toxicity against BAA-44: absence of light, at the concentrations tested (FIG. 4); for Log reduction: S. aureus
Experimental: as §1, §2, §3

[2] = tested on: normal human dermal fibroblasts (NHDF); assay: Toxicity against human skin cells, MTT-assay; format: cell-based
Experimental: (§4) Test compounds were screened for toxicity against cultured human skin cells using normal human epidermal keratinocytes (NHEK) and normal human dermal fibroblasts (NHDF), purchased from CellSystems Biotechnologie GmbH, Germany.
(§5) The NHEK and NHDF cells were used between passages 3 and 10. The cells were seeded with 7.5 and/or 15×10^4 cells/well (microtitreplate) and allowed to attach overnight in an incubator (37° C., 5% CO2). […]
(§6) Phototoxicity was tested by standard MTT-assay (Mossman et al., 1983, Immunological Methods 65:55-63). MTT is an indicator of metabolically active cells. Dependent on enzyme activity in mitochondria a colour reaction can be visualised, which can be measured by ELISA reader (540 nm). The cell viability data were normalised, i.e. the OD values of cells after PDT without photosensitisers were adjusted to one. Each experiment was repeated three times.

[3] = tested on: normal human epidermal keratinocytes (NHEK); assay: Toxicity against human skin cells, MTT-assay; format: cell-based
Experimental: as §4, §5, §6

[4] = tested on: bacterial cells compared to human skin cells; assay: Selectivity for bacteria compared to human skin cells; format: cell-based; conditions: at a dose of 0.01 μM
Experimental: as §2, §4
The NHEK and NHDF cells were used between passages 3 and 10. The cells were seeded with 7.5 and/or 15×10^4 cells/well (microtitreplate) and allowed to attach overnight in an incubator (37° C., 5% CO2). After incubation with different concentrations of the selected photosensitisers, the cells were illuminated for fifteen minutes (Light source 236, Waldmann; 15.2 mW/cm^2, 13.7 J/cm^2) and then incubated for 24 hours in the dark.
as §6

[5] = Chemical stability, qualitative stress tests (HPLC, LC-MS); format: physicochemical; conditions: solid, aqueous solution and PBS; 7 days each at 50° C., 70° C., 90° C.
Experimental: The following HPLC methodology was established for the analysis of the exemplary compounds of the invention.
The method involves detection by UV at a wavelength of 420 nm, which is very specific for these compounds. In order to monitor impurities not related to the porphyrin structure (and therefore not absorbing at 420 nm) UV spectra of the whole chromatograms were also recorded between 200 nm and 700 nm by DAD (diode array detector) in certain experiments.
Qualitative stress tests were undertaken on the exemplary compounds of the invention. Analysis was undertaken by HPLC & LC-MS. The compounds were stress tested in solid form, in an aqueous solution and a solution made up in phosphate-buffered saline buffer. The samples were initially incubated for 7 days at 50° C. and a sample removed for testing. The samples were then incubated for a further 7 days at 70° C., samples removed as before and the samples incubated further for 7 days at 90° C. HPLC analysis of freshly prepared solutions was undertaken and compared to the samples after 7, 14 and 21 days incubation. A visual comparison of the chromatograms was then undertaken and the content of the main products and by-products as area percentage values determined (see FIG. 11).

[6] = dark toxicity (no illumination), 1 μM
[7] = photodynamic activity, 1 μM, illumination 15 min
[8] = dark toxicity (no illumination), 0.01 μM
[9] = photodynamic activity, 0.01 μM, illumination 15 min
[10] = dark toxicity, 1 μM, no illumination
[11] = dark toxicity, 10 μM, no illumination
[12] = photodynamic activity (light toxicity), 0.01 μM, illumination 15 min
[13] = photodynamic activity (light toxicity), 0.1 μM, illumination 15 min
[14] = photodynamic activity (light toxicity), 1 μM, illumination 15 min
[15] = dark toxicity (no illumination), 10 μM

| SMILES | dark toxicity against BAA-44 [1] | Log reduction [1, 9] | Survival [2, 10] [%] | Survival [2, 11] [%] | Survival [2, 12] [%] | Survival [2, 13] [%] | Survival [2, 14] [%] | Survival [3, 11] [%] | Survival [3, 12] [%] | Survival [3, 13] [%] | toxicity to bacterial cells compared to human skin cells [4] | chemical stability under stress test [5] | other results |
| --- | --- | --- | --- | --- | --- | --- | --- | --- | --- | --- | --- | --- | --- |
| C[N+](C)(C)CCCOc1ccc(-c2c3nc(cc4ccc([nH]4)c(-c4ccc(OCCC[N+](C)(C)C)cc4)c4nc(cc5ccc2[nH]5)C=C4)C=C3)cc1.[Cl-].[Cl-] [Compound 10, 5,15-bis-[4-(3-Trimethylammonio-propyloxy)-phenyl]-porphyrin dichloride] | negligible | >4 (>10^−4) | 100 | 91 | 80 | 8 | 0.5 | 51 | 62 | 1.0 | preferentially toxic to bacterial cells compared to human skin cells | good stability | Concentration of Compound 10 required to obtain a 3 log reduction in cells (μM) (E. coli ATCC 25922; E. coli ATCC 25922): 0.1 μM; Log reduction (E. coli ATCC 25922; [6]): <1 (<10^−1); Log reduction (E. coli ATCC 25922; [7]): >6 (>10^−6); bacteria killed ([1]; BAA-44, 0.0025 μM, with light): 90%; Concentration of Compound 10 required to obtain a 3 log reduction in cells (μM) ([1]; Staphylococcus aureus ATCC BAA-44): 0.005 μM; Log reduction [1, 8]: <1 (<10^−1); Survival [3, 10]: 100% |
| CN(C)CCC[N+](C)(C)CCCOc1ccc(-c2c3nc(cc4ccc([nH]4)c(-c4ccc(OCCC[N+](C)(C)CCCN(C)C)cc4)c4nc(cc5ccc2[nH]5)C=C4)C=C3)cc1.[Cl-].[Cl-] [Compound 8, 5,15-bis-(4-{3-[(3-Dimethylamino-propyl)-dimethylammonio]-propyloxy}-phenyl)-porphyrin dichloride] | negligible | 3 | 100 | 68 | 100 | 12 | 3 | 97 | 98 | 33 | preferentially toxic to bacterial cells compared to human skin cells | less stable than Compounds 10 and 12 | Log reduction (E. coli ATCC 25922; [8]): <1 (<10^−1); Log reduction (E. coli ATCC 25922; [15]): 2 (10^−2); Log reduction (E. coli ATCC 25922; [9]): <1 (<10^−1); Log reduction (E. coli ATCC 25922; photodynamic activity, 10 μM, illumination 15 min): >6 (>10^−6); Log reduction [1, 6]: <1 (<10^−1); Log reduction [1, 15]: <1 (<10^−1); Log reduction ([1]; photodynamic activity, 0.1 μM, illumination 15 min): 3 (10^−3); Log reduction [1, 7]: 6 (10^−6); Survival [3, 14]: 0.5% |
